Measurements published in patent US5767236A, “Linear therapeutic peptides” (Biomeasure, Inc., priority 1995, dated 1998).
pIC50: −log10 of the molar value.

Legend:
M5123 hepatoma = test: Subcutaneous tumor assay, M5123 hepatoma; assay type: in vivo, rat; conditions: 100 μg/injection, s.c., b.i.d.
Procedure: (§1) Treatment of tumors induced by subcutaneous implantation of in vitro maintained cell cultures was initiated only when well established as progressively growing tumors in the first transplant generation from in vitro culture. "No takes" were culled and animals with tumors of similar size were carefully randomized into control and test groups.
(§2) Analogues were tested against all tumor systems except SCLC's and NSCLC's at a screening dose of 100 μg/injection, s.c., in the flank opposite from the tumor, b.i.d. Lung tumors (SCLC and NSCLC) were tested at 250 μg/injection, s.c., b.i.d. Rat breast tumors were tested at 400 Ag/injection, s.c., b.i.d., an equivalent extrapolation from the mouse dose.
(§3) In vivo transplantation established tumor systems were implanted s.c. as a 1-2 mm^3 mince of tumor tissue. Treatment was initiated within 2 to 3 days of implantation.
(§4) Tumor weights (mgs) from tumor dimensions (mm×mm) were calculated following the formula of a prolate ellipsoid: […]
(§5) L×W^2 /2, where L is the longer of the two measurements.
(§6) Tumor measurements were determined with a vernier caliper three times/week.

[1] = test system: different human and animal tumors; test: Assay on inhibition of tumor growth, overall statement; assay type: in vivo; conditions: summary of Table 3; inhibitory activity when Percent Test/Control < 80% T/C
Procedure: as §1, §2, §3, §4, §5, §6

CX-1 colon tumor = test: Subcutaneous tumor assay, CX-1 colon tumor; assay type: in vivo, human; conditions: 100 μg/injection, s.c., b.i.d.
Procedure: as §1, §2, §3, §4, §5, §6
CZ-1 Mucinous adenocarcinoma, human, tested as xenografts in […]

[2] = test system: 2PR121D(1)/R adenocarcinoma of the rat prostate; test: Subcutaneous tumor assay, 2PR121D(1)/R prostate tumor; assay type: in vivo; conditions: s.c. tumors in Nb strain rats, 100 μg/injection, b.i.d.
Procedure: as §1, §2, §3, §4, §5, §6
Androgen resistant, poorly
differentiated adenocarcinoma
of the rate prostate derived as an androgen resistant
subline of 2PR121D(1)/S. Tested as subcutaneous tumors

M7777 hepatoma = test: Subcutaneous tumor assay, M7777 hepatoma; assay type: in vivo, rat; conditions: 100 μg/injection, s.c., b.i.d.
Procedure: as §1, §2, §3, §4, §5, §6

CX-5 colon tumor = test: Subcutaneous tumor assay, CX-5 colon tumor; assay type: in vivo, human; conditions: 100 μg/injection, s.c., b.i.d.
Procedure: as §1, §2, §3, §4, §5, §6
GOB-G Moderately differentiated adenocarcinoma, human, tested
as xenografts in athymic nude females.

[3] = test system: AT-3 carcinoma of the rat prostate; test: Subcutaneous tumor assay, AT-3 prostate tumor; assay type: in vivo; conditions: AT-3, s.c. xenografts in athymic nudes, 100 μg/injection, b.i.d.
Procedure: as §1, §2, §3, §4, §5, §6
AT-3 Androgen resistant, undifferentiated fast growing
carcinoma of the rat prostate. A subline of R-3327-H.
Tested as subcutaneous xenografts in athymic nudes.

GRP receptor = biological target: T1, GRP receptor (Rattus norvegicus, UniProt P52500); test: Assay on binding to GRP receptor ([125I-Tyr4]bombesin displacement, AR42J cell membranes); conditions: rat AR42J cell membranes, [125I-Tyr4]bombesin, 30 min, 4° C.; read-out: IC50, affinity binding for the GRP receptors
T1 construct: endogenous in cells; host or cells: rat AR42J pancreatic acinar cells (membrane preparation)
Procedure: Rat AR42J pancreatic acinar cells were cultured in Dulbecco's modified Eagle's medium without antibiotics and supplemented with 10% (vol/vol) fetal calf serum. The incubation atmosphere consisted of 10% C)2 -90% humidified air at 37° C.
Membranes for the bombesin receptor binding assay were obtained by homogenizing AR42J cells (Polytron, setting 6, 15 sec) in ice-cold 50 mM Tris-HCl (Buffer A) and centrifuging twice at 39,000× g (10 min), with an intermediate resuspension in fresh buffer. The final pellets were resuspended in 50 mM Tris-HCl, containing 0.1 mg/ml bacitracin, and 0.1% BSA (Buffer B), and held on ice for the receptor binding assay.
For assay, aliquots (0.4 ml) were incubated with 0.05 ml [^125 I-Tyr^4 ] bombesin (~2200 Ci/mmol, New England Nuclear) and Buffer B, with and without 0.05 ml of unlabeled competing analogs. After a 30 min incubation (4° C.), the bound [^125 I-Tyr^4 ] bombesin was separated from the free by rapid filtration through GF/B filters which had been previously soaked in 0.1% polyethyleneimine. The filters were then washed three times with 5 ml aliquots of ice-cold Buffer A. Specific binding was defined as the total [^125 I-Tyr^4 ] bombesin bound minus that bound in the presence of 1 μM unlabeled bombesin.

[4] = test system: MX-1 human mammary carcinoma; test: Subcutaneous tumor assay, MX-1 breast tumor; assay type: in vivo; conditions: MX-1, s.c. xenografts in athymic nude females, 100 μg/injection, b.i.d.
Procedure: as §1, §2, §3, §4, §5, §6
MX-1 Estrogen independent, human poorly
carcinoma. Tested as subcutaneous xenografts in athymic

M7806 hepatoma = test: Subcutaneous tumor assay, M7806 hepatoma; assay type: in vivo, rat; conditions: 100 μg/injection, s.c., b.i.d.
Procedure: as §1, §2, §3, §4, §5, §6

[5] = test system: A-549 human non-small cell lung cancer (NSCLC); test: Subcutaneous tumor assay, A-549 lung tumor; assay type: in vivo
Procedure: as §1, §2, §3, §4, §5, §6
A-549 An in vitro maintained human non-small cell lung cancer
(NSCLC) obtained from the American Type Culture
Collection repository. Implanted s.c. as a cell
suspension and resultant tumors treated when tumors were […]

[6] = test system: 11095 squamous cell carcinoma of the rat prostate; test: Subcutaneous tumor assay, 11095 prostate tumor; assay type: in vivo; conditions: 11095, s.c. xenografts in athymic nudes, 100 μg/injection, b.i.d.
Procedure: as §1, §2, §3, §4, §5, §6
11095 Androgen insensitive, squamous cell carcinoma of the rat
prostate. Originating and transplantable in Fischer 344
strain rats. Tested as subcutaneous xenografts in […]

[7] = test system: NCI-H345 human small cell lung cancer (SCLC); test: Subcutaneous tumor assay, NCI-H345 lung tumor; assay type: in vivo; conditions: NCI-H345 SCLC, s.c. xenografts in athymic nudes; 250 μg/injection, s.c., b.i.d.
Procedure: as §1, §2, §3, §4, §5, §6
An in vitro maintained human small cell lung cancer
(SCLC) graciously prided by Dr. A. Gazdar. Cell
agglomerates produce slow, progressively growing tumors
in approximately 80% of athymic nude mice
when implanted subcutaneously. Tested as
well established subcutaneous
xenografts in athymic nudes.

MT/W9Q-S breast tumor = test: Subcutaneous tumor assay, MT/W9Q-S breast tumor; assay type: in vivo; conditions: rat breast tumors tested at 400 Ag/injection, s.c., b.i.d.
Procedure: as §1, §2, §3, §4, §5, §6

[8] = test system: 13762NF rat mammary tumor; test: Subcutaneous tumor assay, 13762NF breast tumor; assay type: in vivo; conditions: 13762NF in Fischer 344 strain rats; rat breast tumors tested at 400 Ag/injection, s.c., b.i.d.
Procedure: as §1, §2, §3, §4, §5, §6
13762NF Estrogen insensitive rat mammary tumor transplantable in
Fischer 344 strain rats.

T1 sequence (P52500 whole entry): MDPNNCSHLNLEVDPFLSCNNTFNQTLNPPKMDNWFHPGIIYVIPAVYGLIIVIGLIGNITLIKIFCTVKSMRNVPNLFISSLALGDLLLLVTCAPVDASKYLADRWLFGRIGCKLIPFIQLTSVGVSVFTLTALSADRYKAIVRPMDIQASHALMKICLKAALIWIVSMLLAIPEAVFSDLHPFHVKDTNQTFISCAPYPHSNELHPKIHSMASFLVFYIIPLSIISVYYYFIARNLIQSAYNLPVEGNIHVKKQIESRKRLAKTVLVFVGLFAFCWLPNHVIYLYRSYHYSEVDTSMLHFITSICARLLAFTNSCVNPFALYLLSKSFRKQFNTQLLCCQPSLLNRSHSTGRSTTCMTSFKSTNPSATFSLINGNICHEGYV

CC(C)C[C@H](NC(=O)[C@H](CC(C)C)NC(=O)[C@H](Cc1c[nH]cn1)NC(=O)CNC(=O)[C@@H](NC(=O)[C@H](C)NC(=O)[C@H](Cc1c[nH]c2ccccc12)NC(=O)[C@H](CCC(N)=O)NC(=O)[C@H](N)Cc1ccccc1)C(C)C)C(N)=O [BIM-26187, H-D-Phe-Gln-Trp-Ala-Val-Gly-His-Leu-Leu-NH2]
Percent Test/Control (tumor weight) (M5123 hepatoma): 62%
inhibition of the growth of different human and animal tumors [1]: capable of inhibiting the growth
Percent Test/Control (tumor weight) (CX-1 colon tumor): 31%
Percent Test/Control (tumor weight) [2]: 70%
Percent Test/Control (tumor weight) (M7777 hepatoma): 67%
Percent Test/Control (tumor weight) (CX-5 colon tumor): 83%
Percent Test/Control (tumor weight) [3]: 36%
pIC50 (GRP receptor): 8.30
Percent Test/Control (tumor weight) [4]: 78%
Percent Test/Control (tumor weight) (M7806 hepatoma): 83%
Percent Test/Control (tumor weight) ([5]; A-549 NSCLC, implanted s.c., 250 μg/injection, s.c., b.i.d.): 63%
growth inhibitory effect on non-small cell lung carcinoma (NSCLC) ([5]; FIG. 2): capable of inhibiting
Percent Test/Control (tumor weight) [6]: 50%
Percent Test/Control (tumor weight) [7]: 66%
Percent Test/Control (tumor weight) (MT/W9Q-S breast tumor): 45%
Percent Test/Control (tumor weight) [8]: 70%
